Measurements taken from US8318184B2, “MGLU2 agonists” (Eli Lilly and Company, priority 2009, dated 2012).

What was measured:
ICR(CD-1) mice = test: Reversal of Phencyclidine (PCP)-Induced Hyperlocomotor Activity in Mice; format: in vivo, mouse; conditions: i.p.
Text: This assay for Reversal of Phencyclidine (PCP)-Induced Hyperlocomotor Activity in Mice is run substantially as the Reversal of Phencyclidine (PCP)-Induced Hyperlocomotor Activity in Rats assay provided above, using mice instead of rats and with the changes noted below.
Motor activity is monitored by placing individual male, ICR(CD-1), (Harlan, Indianapolis, Ind.) mice in transparent, plastic shoe-box cages of the dimensions 45×25×20 cm, with 0.5 cm depth of wood chips as bedding, and plastic lid on top of the cage. Motor monitors (Kinder Scientific) consist of a rectangular rack of 12 photobeams arranged in an 8×4 formation, (or a high density grouping of 22 in a 15×7 pattern) at a height of 2.5 cm. The shoe box cage is placed inside of these racks, with the racks on a 3 foot high tabletop in an isolated room. A compound of the present invention is dosed (intraperitoneal route, non-prodrug) usually within a range of 0.3-30 mg/kg; though higher doses may be used, 30 minutes prior to a 7.5 mg/kg challenge dose of phencyclidine (PCP). On the test day, mice are placed in the test cage and allowed to acclimate for 45 minutes prior to PCP challenge; mice are monitored for an additional 60 minutes following PCP administration.
Power analyses have determined that 7-8 mice per group are needed to have appropriate statistical power for detecting treatment differences (power=0.8).

human mGlu2 receptor = target: T1, human mGlu2 receptor (Homo sapiens, UniProt Q14416); test: Human mGlu2 Agonist FLIPR Assay; format: cell-based; conditions: hmGlu2 FLIPR assay, AV-12 cells, relative EC50
T1 construct: expressed in transfected cells; co-transfected with rat EAAT1 and Galpha15
Text: AV-12 cell lines, derived from Syrian Hamster fibroblasts and stably expressing the human mGlu2 receptor and co-transfected with the rat glutamate transporter EAAT 1 (Excitatory Amino Acid Transporter 1) and the Gα15 subunit, are used for these studies. The expression of Gα15 allows Gi-coupled receptors to signal through the phospholipase C pathway, resulting in the ability to measure receptor activation by a fluorometric calcium response assay. […]
Intracellular calcium levels are monitored before and after the addition of compounds using a Fluorometric Imaging Plate Reader (FLIPR, Molecular Devices). […] Results are analyzed using Prism v4.03 (GraphPad Software). […] After taking an initial 5-sec fluorescent read on the FLIPR instrument, a compound of the present invention is added to the cell plate (50 μL per well). […] The compound effect is measured as maximal minus minimal peak heights in relative fluorescent units (RFUs) corrected for basal fluorescence measured in the absence of glutamate. […] Agonist effects are quantified as percent stimulation induced by compound alone relative to the maximal glutamate response. All data are calculated as relative EC50 values using a four-parameter logistic curve fitting program (ActivityBase v5.3.1.22).

[1] = both, human, pH 7.4
Method: Liver S9 fractions are obtained from Xenotech LLC (Lenexa, Mo.). The lot is from a pool of two donors. The liver S9 fraction is prepared and diluted using a homogenization buffer consisting of 50 mM Tris, pH 7.4 at 4° C. and 150 mM potassium chloride without EDTA. Prodrug compounds are incubated in the liver homogenate for 2 hours at 37° C., after which the concentration of compound is determined by LC/MS/MS. Hydrolysis of Clopidogrel to Clopidogrel Carboxylic Acid is utilized as an assay positive control.
A mobile phase gradient is utilized starting mobile phase ratio A/B of 99.9/0.1 and finishing at 1/99.

T1 sequence (Q14416 19-872): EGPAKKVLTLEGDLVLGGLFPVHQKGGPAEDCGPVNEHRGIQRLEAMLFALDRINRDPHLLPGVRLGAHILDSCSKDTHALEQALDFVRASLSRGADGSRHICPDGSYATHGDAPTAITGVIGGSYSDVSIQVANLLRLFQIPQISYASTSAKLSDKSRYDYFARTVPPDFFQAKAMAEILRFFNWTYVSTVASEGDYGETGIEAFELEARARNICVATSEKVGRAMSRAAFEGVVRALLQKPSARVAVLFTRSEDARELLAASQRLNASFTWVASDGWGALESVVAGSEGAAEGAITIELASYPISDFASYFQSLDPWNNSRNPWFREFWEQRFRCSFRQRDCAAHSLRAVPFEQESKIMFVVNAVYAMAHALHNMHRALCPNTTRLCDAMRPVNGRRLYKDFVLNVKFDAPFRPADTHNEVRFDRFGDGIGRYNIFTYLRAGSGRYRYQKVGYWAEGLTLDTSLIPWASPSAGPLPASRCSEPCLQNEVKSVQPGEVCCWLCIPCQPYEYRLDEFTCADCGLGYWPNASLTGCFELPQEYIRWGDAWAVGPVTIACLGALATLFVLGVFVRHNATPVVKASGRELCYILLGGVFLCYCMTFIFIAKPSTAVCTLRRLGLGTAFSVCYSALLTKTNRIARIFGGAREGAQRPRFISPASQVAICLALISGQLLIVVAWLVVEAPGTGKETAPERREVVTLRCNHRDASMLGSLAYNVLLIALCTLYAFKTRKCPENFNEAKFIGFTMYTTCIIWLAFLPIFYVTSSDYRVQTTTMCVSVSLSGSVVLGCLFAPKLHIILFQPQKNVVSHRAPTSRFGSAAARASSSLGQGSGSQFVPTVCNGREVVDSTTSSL

EC50 (human mGlu2 receptor) [µM] | Hydrolysis of Clopidogrel to Clopidogrel Carboxylic Acid [1] [%] | Structure (SMILES) | inhibition of PCP evoked ambulations (ICR(CD-1) mice; multiple dose experiment, 10 mg/kg dose) [%] | inhibition of PCP evoked ambulations (ICR(CD-1) mice; multiple dose experiment, 100 mg/kg dose) [%] | inhibition of PCP evoked ambulations (ICR(CD-1) mice; single dose experiment of 10 mg/kg) [%]
> 25 | – | N[C@]1(C(=O)O)C[C@H](Sc2ccccc2)[C@@H]2[C@@H](C(=O)O)[C@@H]21 (racemic) [1SR,2RS,4SR,5SR,6SR-2-amino-4-(phenylthio)-bicyclo[3.1.0]hexane-2,6-dicarboxylic acid] | 5±10 | 19±8 | 18±11
– | 73.0 | COC(=O)[C@H](c1ccccc1Cl)N1CCc2sccc2C1 [Clopidogrel] | – | – | –
